Laboratory results from patent publication US20250222003A1, “PHARMACEUTICAL COMPOSITION FOR TREATING SOLID TUMORS” (Eisai R&D Management Co., Ltd., priority 2021, published 2025).
Where two headings read alike, the source gives them in different places. Marks after values point to notes of the source that are not given here.

Test: Pharmacokinetics of Compound A, phase I dose-escalation part (plasma)
Type: in vivo, human
Conditions: for AUC(0-t) / Cmax / Tmax / AUC / half-life: human, plasma, oral; for AUC(0-t): read-out: AUC(0-12 h); for half-life: read-out: Effective t1/2 (converted)
Description: In the treatment phase, Compound A (an oral formulation containing Compound A) is administered to the subjects of administration in one cycle of 28 days. The subjects continued to receive Compound A until disease progression, development of intolerable side effects, the desire for discontinuation of administration and consent withdrawal by the subjects of administration, or trial discontinuation by the clinical trial client. One cycle is 28 days of administration, and such an abbreviation as “C1D28” indicates the number of cycles and the number of days in the cycle, for example, “C1D28” means the 28th day of cycle 1 (the first cycle). The subjects of administration were hospitalized until the time of […] and took a medical consultation and physical examination at the time of C1D15, and if the principal investigator or sub investigator was judged, from the results, that there were no medical problems, the subjects were allowed to leave the hospital. If administration was to be continued after the completion of the medical consultation and physical examination at the time of C2D1, written consent for continuation was obtained before administration at the time of C2D1.
Tablets containing Compound A are used as Compound A and administered orally repeatedly twice daily (BID). The subjects fasted 2 hours before and 1 hour after administration. The tablets were taken with water and, if possible, at the prescribed time, but if this was not possible, the tablets were taken 8 hours or more after the previous administration.
In the dose-escalation part, blood was collected from the subjects of administration according to the schedule shown in Table 5, and the pharmacokinetics of Compound A was evaluated. In the expansion part, blood was collected from the subjects of administration before the first administration at C1D1 and CID8, 0.5, 1 and 2 hours after the oral administration of Compound A, and before the first administration at C2D1, and the pharmacokinetics of Compound A was evaluated. The data for C1D1 (the first day of the first cycle) corresponds to the results of a single-dose administration, and the data for C1D8 (the eighth day of the first cycle) corresponds to the results after multiple-dose administration for 8 days at 2 doses per 1 day.
a Based on 5 patients; b based on 2 patients; c based on 3 patients. tmax is reported as median (range). All other values are reported as geometric mean (% CV). Parameters with two patients are reported for both patients.

[1] = C1D8, 160 mg BID (n = 2), both patients
[2] = 160 mg, C1D8, 160 mg BID (n = 2), both patients

C=CCN1CC(=O)N2[C@@H](Cc3ccc(O)cc3F)C(=O)N(Cc3cccc(N4CC(N5CCN(CC)CC5)C4)n3)C[C@@H]2N1C(=O)NCc1ccccc1 [Compound A, (6S,9aS)—N-benzyl-8-({6-[3-(4-ethylpiperazin-1-yl)azetidin-1-yl]pyridin-2-yl}methyl)-6-(2-fluoro-4-hydroxybenzyl)-4,7-dioxo-2-(prop-2-en-1-yl)hexahydro-2H-pyrazino[2,1-c][1,2,4]triazine-1 (6H)-carboxamide]
relation of exposure to dosage (10-160 mg BID, Tables 6 and 7): exposure amount increased as the dosage of Compound A increased | Effective t1/2 (C1D8, 20 mg BID, based on 2 patients, both patients): 18.0 ^b h | C max, ss [1]: 3850 ng/mL | Effective t1/2 [1]: 25.6 h | t max, ss [1]: 1.00, 1.00 h | AUC(0-t) (10 mg, C1D1, 10 mg BID (n = 3), geometric mean): 131 ng·h/mL | Cmax (10 mg, C1D1, 10 mg BID (n = 3), geometric mean, read-out: Cmax): 37.2 ng/mL | Tmax (10 mg, C1D1, 10 mg BID (n = 3), median): 2 h | AUC (10 mg, C1D8, 10 mg BID (n = 3), geometric mean, read-out: AUC (0-tau), ss): 210 ng·h/mL | Cmax (10 mg, C1D8, 10 mg BID (n = 3), geometric mean, read-out: C max, ss): 53.9 ng/mL | Tmax (10 mg, C1D8, 10 mg BID (n = 3), median): 2 h | AUC(0-t) (15 mg, C1D1, 15 mg BID (n = 4), geometric mean): 310 ng·h/mL | Cmax (15 mg, C1D1, 15 mg BID (n = 4), geometric mean, read-out: Cmax): 135 ng/mL | Tmax (15 mg, C1D1, 15 mg BID (n = 4), median): 0.75 h | AUC (15 mg, C1D8, 15 mg BID (n = 4), geometric mean, read-out: AUC (0-tau), ss): 504 ng·h/mL | Cmax (15 mg, C1D8, 15 mg BID (n = 4), geometric mean, read-out: C max, ss): 159 ng/mL | half-life (15 mg, C1D8, 15 mg BID (n = 4), geometric mean): 7.1 h | Tmax (15 mg, C1D8, 15 mg BID (n = 4), median): 0.75 h | AUC(0-t) (20 mg, C1D1, 20 mg BID (n = 3), geometric mean): 501 ng·h/mL | Cmax (20 mg, C1D1, 20 mg BID (n = 3), geometric mean, read-out: Cmax): 146 ng/mL | Tmax (20 mg, C1D1, 20 mg BID (n = 3), median): 1 h | AUC (20 mg, C1D8, 20 mg BID (n = 3), geometric mean, read-out: AUC (0-tau), ss): 866 ng·h/mL | Cmax (20 mg, C1D8, 20 mg BID (n = 3), geometric mean, read-out: C max, ss): 278 ng/mL | Tmax (20 mg, C1D8, 20 mg BID (n = 3), median): 0.5 h | half-life (20 mg, C1D8, 20 mg BID, based on 2 patients, both patients): 12.2 h | AUC(0-t) (30 mg, C1D1, 30 mg BID (n = 3), geometric mean): 349 ng·h/mL | Cmax (30 mg, C1D1, 30 mg BID (n = 3), geometric mean, read-out: Cmax): 105 ng/mL | Tmax (30 mg, C1D1, 30 mg BID (n = 3), median): 2 h | AUC (30 mg, C1D8, 30 mg BID (n = 3), geometric mean, read-out: AUC (0-tau), ss): 396 ng·h/mL | Cmax (30 mg, C1D8, 30 mg BID (n = 3), geometric mean, read-out: C max, ss): 68.3 ng/mL | Tmax (30 mg, C1D8, 30 mg BID (n = 3), median): 2 h | AUC(0-t) (45 mg, C1D1, 45 mg BID (n = 4), geometric mean): 865 ng·h/mL | Cmax (45 mg, C1D1, 45 mg BID (n = 4), geometric mean, read-out: Cmax): 209 ng/mL | Tmax (45 mg, C1D1, 45 mg BID (n = 4), median): 1 h | AUC (45 mg, C1D8, 45 mg BID (n = 4), geometric mean, read-out: AUC (0-tau), ss): 1070 ng·h/mL | Cmax (45 mg, C1D8, 45 mg BID (n = 4), geometric mean, read-out: C max, ss): 199 ng/mL | half-life (45 mg, C1D8, 45 mg BID (n = 4), geometric mean): 6.59 h | Tmax (45 mg, C1D8, 45 mg BID (n = 4), median): 3 h | AUC(0-t) (80 mg, C1D1, 80 mg BID (n = 3), geometric mean): 758 ng·h/mL | Cmax (80 mg, C1D1, 80 mg BID (n = 3), geometric mean, read-out: Cmax): 279 ng/mL | Tmax (80 mg, C1D1, 80 mg BID (n = 3), median): 2 h | AUC (80 mg, C1D8, 80 mg BID (n = 3), geometric mean, read-out: AUC (0-tau), ss): 2100 ng·h/mL | Cmax (80 mg, C1D8, 80 mg BID (n = 3), geometric mean, read-out: C max, ss): 737 ng/mL | half-life (80 mg, C1D8, 80 mg BID (n = 3), geometric mean): 17.4 h | Tmax (80 mg, C1D8, 80 mg BID (n = 3), median): 1 h | AUC(0-t) (100 mg, C1D1, 100 mg BID (n = 6), geometric mean): 1420 ng·h/mL | Cmax (100 mg, C1D1, 100 mg BID (n = 6), geometric mean, read-out: Cmax): 443 ng/mL | Tmax (100 mg, C1D1, 100 mg BID (n = 6), median): 0.5 h | Cmax (100 mg, C1D8, 100 mg BID (n = 6), geometric mean, read-out: C max, ss): 862 ng/mL | half-life (100 mg, C1D8, 100 mg BID (n = 6), geometric mean): 13 h | Tmax (100 mg, C1D8, 100 mg BID (n = 6), median): 1 h | AUC (100 mg, C1D8, 100 mg BID, based on 5 patients, geometric mean, read-out: AUC (0-tau), ss): 2700 ng·h/mL | AUC(0-t) (120 mg, C1D1, 120 mg BID (n = 3), geometric mean): 1910 ng·h/mL | Cmax (120 mg, C1D1, 120 mg BID (n = 3), geometric mean, read-out: Cmax): 557 ng/mL | Tmax (120 mg, C1D1, 120 mg BID (n = 3), median): 2 h | AUC(0-t) (120 mg, C1D1, 120 mg BID (n = 8, incl. additional cases), geometric mean): 1910 ng·h/mL | Cmax (120 mg, C1D1, 120 mg BID (n = 8, incl. additional cases), geometric mean, read-out: Cmax): 557 ng/mL | Tmax (120 mg, C1D1, 120 mg BID (n = 8, incl. additional cases), median): 2 h | AUC (120 mg, C1D8, 120 mg BID (n = 3), geometric mean, read-out: AUC (0-tau), ss): 2460 ng·h/mL | Cmax (120 mg, C1D8, 120 mg BID (n = 3), geometric mean, read-out: C max, ss): 737 ng/mL | half-life (120 mg, C1D8, 120 mg BID (n = 3), geometric mean): 5.49 h | Tmax (120 mg, C1D8, 120 mg BID (n = 3), median): 1 h | AUC (120 mg, C1D8, 120 mg BID (n = 8), based on n = 7 subjects, geometric mean, read-out: AUC (0-tau), ss): 2460 ng·h/mL | Cmax (120 mg, C1D8, 120 mg BID (n = 8), based on n = 7 subjects, geometric mean, read-out: C max, ss): 751 ng/mL | Tmax (120 mg, C1D8, 120 mg BID (n = 8), based on n = 7 subjects, median): 1 h | AUC (160 mg BID, C1D8, read-out: lowest value of AUC(0-tau),ss of the subjects in which vomiting could not be suppressed even after the 5-HT3 receptor antagonist): 9060 ng·h/mL | Tmax (160 mg, C1D1, 160 mg BID (n = 2), both patients): 0.5 h | Tmax [2]: 1 h | Cmax (160 mg, C1D8, 160 mg BID (n = 2), both patients, read-out: C max, ss): 2980 ng/mL | half-life [2]: 17.5 h | AUC (C1D8, read-out: highest value of AUC(0-tau),ss of the subjects in which vomiting could be suppressed by the 5-HT3 receptor antagonist): 7640 ng·h/mL
